The record followed here is US6605297B2, “Substances having antiobese and visceral fat-reducing functions and utilization thereof” (Janiftec, Inc., priority 1998, dated 2003).

Each structure is given as a SMILES string.

Experiment [1] in a line: 7-week feeding study in rats: body weight, feed ingested, symptoms. The class given is in vivo, Sprague-Dawley male rats. To be noted: Example 3; 0.5% in feed plus 8.5% lard, rats 7 weeks. How it is done:
(§1) After acclimation for 1 week on basic feed (F-2, Funabashi Farms Co., Ltd.) using 7-week-old Sprague-Dawley male rats, 7 rats per group were placed in the following 3 groups so that average body weight of each group would be the same and reared for 7 weeks. Rearing environment was adjusted to a temperature of 22 to 24° C. and humidity of 50 to 60%, with 12 hours of light and dark each (light time: 8:00 to 20:00, dark time: 20:00 to 8:00). Feed was supplied in restricted amounts and body weight was determined each week.
(§2) The components, including proteins, sugars, etc., were the same and the lipids were adjusted to 10% for each group. […]
(§3) After being reared for 7 weeks, the laboratory animals were fasted for 20 hours. […] Then mesenteric fat, perinephric fat, peritesticular fat, and interscapular brown fat were recovered and weighed and the brown fat was submitted to determinations of the amount of UCP. The plasma was obtained from blood by conventional methods and serum triglycerides, cholesterol, and phospholipid concentrations were determined. The amount of UCP was determined by the following method.
With the exception that 8.5% lard was added to 0.5% starting DHA ethyl ester and served as the control group, and 8.5% lard was added to 0.5% coupled DHA ethyl ester and served as the coupled DHA ethyl group, the feed was in accordance with Example 1. […]

Experiment [2] has as its system mesenteric fat, perinephric fat, peritesticular fat, interscapular brown fat. Nature of the experiment: 7-week feeding study in rats: weight of mesenteric, perinephric, peritesticular and interscapular brown fat. The experiment is classed as in vivo, Sprague-Dawley male rats. To be noted: Example 3; 0.5% in feed plus 8.5% lard, rats 7 weeks. Here is the method:
as §1, §2, §3
Then the mesenteric fat, perinephric fat, peritesticular fat, and interscapular brown fat were collected and weight was determined, and the brown fat was submitted to determinations of the amount of UCP.

For a further experiment, the system named is UCP. In words: Amount of UCP in interscapular BAT mitochondria fraction by western blotting. The experiment is classed as in vivo, rat. To be noted: Example 3; 0.5% in feed, rats 7 weeks; relative value, control group = 100. How it is done: as §3
Interscapular BAT extracted from rats was homogenized with 200 mM sucrose (comprising 10 mM Tris-HCl at pH of 7.5; 2 mM EDTA), centrifuged for 5 minutes at 3,100 rpm and 4° C. using a centrifugator on a cold table, and the supernatent thereof was further centrifuged for 10 minutes at 12,000 rpm and 4° C. The precipitate thus obtained (mitochondria fraction) was served as the sample.
Polyacrylamide gel electrophoresis was performed with 11% separated gel, and 50 μg sample protein were submitted to analysis from each lane. As the electrophoresis conditions, migration for 10 minutes at 100 V and then for 1 hour at 200 V were adopted. […] After rinsing, the UCP band was detected on X-ray film with a chemiluminescence method detection reagent (Dupont). The darkness of the band on the film was read with a scanner and digitized by a computer. […]
(In general: In western blotting, separated proteins are transferred to a membrane and probed.)

On to `CC/C=C\C/C=C\C/C=C\C/C=C\C/C=C\C/C=C\CCC(=O)OCC` [Control group, DHA ethyl ester], for which, in experiment [1], the Body weight is listed as 515.8 ± 29 b g. In experiment [2], the “Brown fat per body weight” value is on record as 0.073 ± 0.015%, the “Mesenteric fat per body weight” value turned out to be 1.01 ± 0.20 b % and the “Total intra-abdominal fat per body weight” value is recorded as 5.29 ± 0.93 b %. The same compound displayed a UCP in the experiment with UCP of 100 ± 8.
